Test results published in ChEMBL document CHEMBL4229350, “Antimicrobial activity and self-assembly behavior of antimicrobial peptide chensinin-1b with lipophilic alkyl tails” (Eur J Med Chem, 2018).
≈ marks a conversion by molar mass, not a printed value. Calls of active or inactive are those of the source. The calls are words filed in the database; no cut-off is given here. Peptide text beside a SMILES is read from it. * marks the point of attachment. Palmitoyl = CCCCCCCCCCCCCCCC(=O)*

Key:
Lipid bilayer [1] = assay: Induction of membrane permeabilization in calcein loaded PG/CL large unilamellar vesicles assessed as calcein leakage at 6 uM after 15 mins by fluorescence assay relative to control
Enterococcus faecium = assay: Antimicrobial activity against Enterococcus faecium CGMCC 1.2334 after 18 hrs by micro dilution method; format: functional; conditions: CGMCC 1.2334, 18 h
U-937 [2] = assay: Antiinflammatory activity in human U937 cells assessed as inhibition of LPS-induced IL-6 production at 12.6 uM after 24 hrs by ELISA relative to control; format: functional; conditions: U-937, 24 h
Lipopolysaccharide (LPS) [3] = assay: Induction of LPS micelles disaggergation assessed as small particle distribution at 2 uM by DLS method
A-375 = assay: Cytotoxicity against human A375 cells assessed as reduction in cell viability after 1 hr by MTT assay; format: functional, cell-based; conditions: A-375, 1 h
Lipid bilayer [4] = assay: Induction of membrane permeabilization in PC/cholesterol large unilamellar vesicles assessed as blue shift by Tryptophan fluorescence spectroscopy
[5] = Hemolytic activity against human erythrocytes after 1 hr; format: ADME, cell-based, Erythrocyte
Staphylococcus aureus [6] = assay: Antimicrobial activity against Staphylococcus aureus AS 1.72 after 18 hrs by micro dilution method; format: functional; conditions: AS 1.72, 18 h
Escherichia coli [7] = assay: Antimicrobial activity against Escherichia coli AS 1.349 assessed as induction of outer membrane permeabilization by measuring NPN uptake by fluorescence assay; format: functional, organism-based
U-937 [8] = assay: Antiinflammatory activity in human U937 cells assessed as inhibition of LPS-induced IL-6 production at 3.13 uM after 24 hrs by ELISA relative to control; format: functional; conditions: U-937, 24 h
Lipopolysaccharide (LPS) [9] = assay: Binding affinity to Escherichia coli 0111:B4 LPS by ITC method
U-937 [10] = assay: Antiinflammatory activity in human U937 cells assessed as inhibition of LPS-induced TNF-alpha production at 6.25 uM after 24 hrs by ELISA relative to control; format: functional; conditions: U-937, 24 h
U-937 [11] = assay: Antiinflammatory activity in human U937 cells assessed as inhibition of LPS-induced IL-6 production at 6.25 uM after 24 hrs by ELISA relative to control; format: functional; conditions: U-937, 24 h
[12] = Self-assembly property assessed as diameter of monodispersed micelles at 1 mg/ml at pH 2 by TEM analysis; format: physicochemical
Staphylococcus aureus [13] = assay: Antimicrobial activity against Staphylococcus aureus AS 1.72 assessed as induction of outer membrane permeabilization by measuring NPN uptake by fluorescence assay; format: functional, organism-based
Staphylococcus aureus [14] = assay: Antimicrobial activity against Staphylococcus aureus AS 1.72 assessed as induction of bacterial cytoplasmic membrane depolarization at 2 times MIC after 6 mins by diSC3-5 dye-based fluorescence assay; format: functional, organism-based
[15] = Self-assembly property assessed as diameter of tightly packed nanofibers at 1 mg/ml at pH 2 by TEM analysis; format: physicochemical
Lipopolysaccharide (LPS) [16] = assay: Induction of LPS micelles disaggergation assessed as abundant particle size formation at 2 uM by DLS method
U-937 [17] = assay: Antiinflammatory activity in human U937 cells assessed as inhibition of LPS-induced TNF-alpha production after 24 hrs by ELISA; format: functional, cell-based
Lipid bilayer [18] = assay: Induction of membrane permeabilization in calcein loaded PG/CL/PE large unilamellar vesicles assessed as calcein leakage at 3 uM after 10 mins by fluorescence assay relative to control
Escherichia coli [19] = assay: Antimicrobial activity against Escherichia coli AS 1.349 after 18 hrs by micro dilution method; format: functional; conditions: AS 1.349, 18 h
U-937 [20] = assay: Antiinflammatory activity in human U937 cells assessed as inhibition of LPS-induced TNF-alpha production at 12.6 uM after 24 hrs by ELISA relative to control; format: functional; conditions: U-937, 24 h
Lipid bilayer [21] = assay: Induction of membrane permeabilization in calcein loaded LPS/PC/PG large unilamellar vesicles assessed as calcein leakage after 15 mins by fluorescence assay
Lactococcus lactis = assay: Antimicrobial activity against Streptococcus lactis AS 1.1690 after 18 hrs by micro dilution method; format: functional; conditions: AS 1.1690, 18 h
Lipid bilayer [22] = assay: Induction of membrane permeabilization in calcein loaded LPS/PC/PG large unilamellar vesicles assessed as calcein leakage at 50 uM after 15 mins by fluorescence assay relative to control
Pseudomonas aeruginosa = assay: Antimicrobial activity against Pseudomonas aeruginosa CGMCC 1.860 after 18 hrs by micro dilution method; format: functional; conditions: CGMCC 1.860, 18 h
Lipid bilayer [23] = assay: Induction of membrane permeabilization in PG/CL large unilamellar vesicles assessed as blue shift at compound to lipid ratio of 60 by Tryptophan fluorescence spectroscopy
[24] = Self-assembly property assessed as diameter of monodispersed micelles at 1 mg/ml at pH 7 by TEM analysis; format: physicochemical
Lipid bilayer [25] = assay: Induction of membrane permeabilization in calcein loaded PC/cholesterol large unilamellar vesicles assessed as calcein leakage at 50 uM after 10 mins by fluorescence assay relative to control
Enterococcus faecalis = assay: Antimicrobial activity against Enterococcus faecalis CGMCC 1.595 after 18 hrs by micro dilution method; format: functional; conditions: CGMCC 1.595, 18 h
Bacillus cereus = assay: Antimicrobial activity against Bacillus cereus AS 1.126 after 18 hrs by micro dilution method; format: functional; conditions: AS 1.126, 18 h
Lipopolysaccharide (LPS) [26] = assay: Binding affinity to Escherichia coli 0111:B4 LPS assessed as equilibrium association constant by ITC method
Escherichia coli [27] = assay: Antimicrobial activity against Escherichia coli AS 1.349 assessed as induction of bacterial cytoplasmic membrane depolarization at 2 times MIC after 7 mins by diSC3-5 dye-based fluorescence assay; format: functional, organism-based
[28] = Cytotoxicity against human U937 cells assessed as cell viability at 3.13 to 12.6 uM after 1 hr by MTT assay relative to control; format: cell-based, U-937; conditions: read-out: Activity
U-937 [29] = assay: Antiinflammatory activity in human U937 cells assessed as inhibition of LPS-induced TNF-alpha production at 3.13 uM after 24 hrs by ELISA relative to control; format: functional; conditions: U-937, 24 h
Lipid bilayer [30] = assay: Induction of membrane permeabilization in calcein loaded PG/CL/PE large unilamellar vesicles assessed as calcein leakage at 6 uM after 15 mins by fluorescence assay relative to control
Lipid bilayer [31] = assay: Induction of membrane permeabilization in PG/CL/PE large unilamellar vesicles assessed as blue shift at compound to lipid ratio of 10 by Tryptophan fluorescence spectroscopy
MCF7 = assay: Cytotoxicity against human MCF7 cells assessed as reduction in cell viability after 1 hr by MTT assay; format: functional, cell-based; conditions: MCF7, 1 h
HeLa = assay: Cytotoxicity against human HeLa cells assessed as reduction in cell viability after 1 hr by MTT assay; format: functional, cell-based
U-937 [32] = assay: Antiinflammatory activity in human U937 cells assessed as inhibition of LPS-induced IL-6 production after 24 hrs by ELISA; format: functional, cell-based
Lipid bilayer [33] = assay: Induction of membrane permeabilization in calcein loaded PG/CL large unilamellar vesicles assessed as calcein leakage at 3 uM after 10 mins by fluorescence assay relative to control

Activity (Lipid bilayer [1]): 80% | MIC (Enterococcus faecium): 3.13 µM (≈ 8.71 µg/mL) | Activity (Lipopolysaccharide (LPS) [3]): 400 nm | Activity (Lipid bilayer [4]): inactive | MIC (Staphylococcus aureus [6]): 12.5 µM (≈ 34.8 µg/mL) | Activity [12]: 5460 nm | Activity [15]: 200 nm | Activity (Lipopolysaccharide (LPS) [16]): 100 nm | Activity (Lipid bilayer [18]): 33% | MIC (Escherichia coli [19]): 12.5 µM (≈ 34.8 µg/mL) | Activity (Lipid bilayer [21]): Dose-dependent effect | MIC (Lactococcus lactis): 3.13 µM (≈ 8.71 µg/mL) | Activity (Lipid bilayer [22]): 55% | MIC (Pseudomonas aeruginosa): 6.25 µM (≈ 17.4 µg/mL) | Activity (Lipid bilayer [23]): 18 nm | Activity [24]: 24 nm | Activity (Lipid bilayer [25]): 20% | MIC (Enterococcus faecalis): 6.25 µM (≈ 17.4 µg/mL) | MIC (Bacillus cereus): 6.25 µM (≈ 17.4 µg/mL) | Ka (Lipopolysaccharide (LPS) [26]): 114 mM⁻¹ | Activity (Lipid bilayer [30]): 54% | Activity (Lipid bilayer [31]): 14 nm | Activity (Lipid bilayer [33]): 46%
Compound: CCCCCCCCCCCCCCCC(=O)N[C@@H](CO)C(=O)N[C@@H](CCCCN)C(=O)N[C@H](C(=O)N[C@@H](Cc1c[nH]c2ccccc12)C(=O)N[C@@H](CCCNC(=N)N)C(=O)N[C@@H](Cc1cnc[nH]1)C(=O)N[C@@H](Cc1c[nH]c2ccccc12)C(=O)N[C@@H](CCCNC(=N)N)C(=O)N[C@@H](CCCNC(=N)N)C(=O)N[C@@H](Cc1ccccc1)C(=O)N[C@@H](Cc1c[nH]c2ccccc12)C(=O)N[C@@H](Cc1cnc[nH]1)C(=O)N[C@@H](CCCNC(=N)N)C(=O)N[C@@H](C)C(=O)N[C@@H](Cc1cnc[nH]1)C(=O)N[C@@H](CCCNC(=N)N)C(=O)N[C@@H](CCCCN)C(=O)N[C@@H](CC(C)C)C(=O)O)C(C)C (Palmitoyl-SKVWRHWRRFWHRAHRKL-OH)
inhibition at 12.6 µM (U-937 [2]): 35% | IC50 (A-375): 18.2 µM | HC50 at 1 h [5]: > 500 µM | Activity (Escherichia coli [7]): Dose-dependent effect | inhibition at 3.13 µM (U-937 [8]): 27% | Kd (Lipopolysaccharide (LPS) [9]): 8.77 µM | inhibition at 6.25 µM (U-937 [10]): 32% | inhibition at 6.25 µM (U-937 [11]): 31% | Activity (Staphylococcus aureus [13]): Dose-dependent effect | Activity (Staphylococcus aureus [14]): Active | inhibition (U-937 [17]): Dose-dependent effect | inhibition at 12.6 µM (U-937 [20]): 35% | Activity (Escherichia coli [27]): Active | viability at 1 h, up to 12.6 µM [28]: 80% | inhibition at 3.13 µM (U-937 [29]): 24% | IC50 (MCF7): 20.6 µM | IC50 (HeLa): 21 µM | inhibition (U-937 [32]): Dose-dependent effect
